Measured values from US20260242390A1, “TOTAL SYNTHESES OF PORTIMINE A AND ANALOGUES THEREOF AS SMALL MOLECULE MODULATORS OF NMD3” (priority 2023, published 2026).
pIC50: −log10 of the molar value.

How the values were obtained:
HT-1080 fibrosarcoma = test: HT-1080 Tumor Xenograft Model; type: in vivo, mouse; conditions: 0.3 or 1.0 mg/kg, i.p.
Source text: FIG. 9. […] (A) Systemic Portimine A in MC38 Syngeneic Tumor Xenograft Model; and (B) Systemic Portimine A in HT-1080 Tumor Xenograft Model.
Preliminary cell-based target engagement studies, based on compound washout, indicates PA is fast acting with <1 hr of exposure resulting in minimal loss of potency. Cmax-driven pharmacology and facile synthetic access to material enabled the evaluation of PA in both a syngeneic (MC38 colon carcinoma) and a human metastatic mesenchymal (HT-1080 fibrosarcoma) mouse tumor xenograft model. […] Metabolic stability represents an opportunity for an additional IP position.
• 1) Portimine A and its functional analogs show stereo-selective acute toxicity in cancer cells (FIG. 1). […] (B) Structure of portimine related analogs: phenyl-portimine A (Ph-PA, 36) and epi-portimine A (ePA, 38). Structure of fully functionalized portimine A-based epimeric probe pair: portimine A-diazirine-alkyne (PA-DA, 35-2) and epi-portimine A-diazirine-alkyne (ePA-DA, 35-1). (C) Cell viability analysis of portimine A and analogs. Jurkat cells were treated with increasing concentrations of portimine A and analogs for 24 hours. All presented data as mean of biological replicated experiments (n=3). […] Jurkat cells were treated with portimine A or analogs for 12 hours at 10 nM. […]

MC38 = test: Broad cell line profiling, MC38; type: cell-based; conditions: MC-38; MC38, Mouse Colon Carcinoma; read-out: PA IC50
Source text: • A panel of human and mouse cancer cell types used to assess the breadth of PA activity, including multiple therapy resistant metastatic mesenchymal tumor cell lines and primary glioblastoma patient-derived metastatic stem/tumor initiating cell populations.

In the case of C=CC1=C[C@@H]2[C@@H]3O[C@]4(CC[C@H](O4)C(C)C[C@@H](O)C3=O)CC(O)C3=NCC[C@@]32CC1 (some centres unmarked) [PA, portimine A], the “anti-tumor activity, HT-1080 fibrosarcoma xenograft model” value (HT-1080 fibrosarcoma) was “Potent anti-tumor activity” and the pIC50 (MC38) was 9.26.
